Measured values from the supplement of paper PMC10307832.

Assays:
Assay in all cases: relative viability (nuclei count vs DMSO), 5 days (fraction); higher = more cells survive
Omipalisib + Pemetrexed = compound: COc1ncc(-c2ccc3nccc(-c4ccnnc4)c3c2)cc1NS(=O)(=O)c1ccc(F)cc1F [Omipalisib] + Nc1nc2[nH]cc(CCc3ccc(C(=O)N[C@@H](CCC(=O)O)C(=O)O)cc3)c2c(=O)[nH]1 [Pemetrexed] (partner 0.2 µM)
Procedure, shortened: (§1)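 Nuclei were stained with Hoechst during a one-step fixation (final 0.05% Triton X-100, 1% formaldehyde, 1 ug/ml Hoechst) carried out 5 days after dosing, then counted on 4× images. The cells, lung cancer lines in 1536-well plates, had been dosed by pin tool the day after seeding with one drug alone or a fixed anchor-drug dose plus five library-drug doses (not always all listed) in √10 steps. Relative viability is the nuclei count in treated wells divided by that in vehicle wells, and each value is the median of duplicate plates.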

Omipalisib + Pictilisib = compound: COc1ncc(-c2ccc3nccc(-c4ccnnc4)c3c2)cc1NS(=O)(=O)c1ccc(F)cc1F [Omipalisib] + CS(=O)(=O)N1CCN(Cc2cc3nc(-c4cccc5[nH]ncc45)nc(N4CCOCC4)c3s2)CC1 [Pictilisib] (partner 1 µM)
Procedure, shortened: as §1

Omipalisib + Linsitinib = compound: COc1ncc(-c2ccc3nccc(-c4ccnnc4)c3c2)cc1NS(=O)(=O)c1ccc(F)cc1F [Omipalisib] + C[C@]1(O)C[C@@H](c2nc(-c3ccc4ccc(-c5ccccc5)nc4c3)c3c(N)nccn32)C1 [Linsitinib] (partner 1 µM)
Procedure, shortened: as §1

Omipalisib + Foretinib = compound: COc1ncc(-c2ccc3nccc(-c4ccnnc4)c3c2)cc1NS(=O)(=O)c1ccc(F)cc1F [Omipalisib] + COc1cc2c(Oc3ccc(NC(=O)C4(C(=O)Nc5ccc(F)cc5)CC4)cc3F)ccnc2cc1OCCCN1CCOCC1 [Foretinib] (partner 0.25 µM)
Procedure, shortened: as §1

Omipalisib + Palbociclib = compound: COc1ncc(-c2ccc3nccc(-c4ccnnc4)c3c2)cc1NS(=O)(=O)c1ccc(F)cc1F [Omipalisib] + CC(=O)c1c(C)c2cnc(Nc3ccc(N4CCNCC4)cn3)nc2n(C2CCCC2)c1=O [Palbociclib] (partner 0.5 µM)
Procedure, shortened: as §1

Omipalisib + Navitoclax = compound: COc1ncc(-c2ccc3nccc(-c4ccnnc4)c3c2)cc1NS(=O)(=O)c1ccc(F)cc1F [Omipalisib] + CC1(C)CCC(c2ccc(Cl)cc2)=C(CN2CCN(c3ccc(C(=O)NS(=O)(=O)c4ccc(N[C@H](CCN5CCOCC5)CSc5ccccc5)c(S(=O)(=O)C(F)(F)F)c4)cc3)CC2)C1 [Navitoclax] (partner 0.5 µM)
Procedure, shortened: as §1

Cell Line: NCI-H1944
- relative viability (Omipalisib + Pemetrexed; first compound 0.0003 µM): 0.626
- relative viability (Omipalisib + Pemetrexed; first compound 0.003 µM): 0.471
- relative viability (Omipalisib + Pemetrexed; first compound 0.03 µM): 0.324
- relative viability (Omipalisib + Pictilisib; first compound 0.0003 µM): 0.363
- relative viability (Omipalisib + Pictilisib; first compound 0.003 µM): 0.301
- relative viability (Omipalisib + Pictilisib; first compound 0.03 µM): 0.28
- relative viability (Omipalisib + Linsitinib; first compound 0.0003 µM): 1.21
- relative viability (Omipalisib + Linsitinib; first compound 0.003 µM): 0.854
- relative viability (Omipalisib + Linsitinib; first compound 0.03 µM): 0.481
- relative viability (Omipalisib + Foretinib; first compound 0.0003 µM): 0.811
- relative viability (Omipalisib + Foretinib; first compound 0.003 µM): 0.457
- relative viability (Omipalisib + Foretinib; first compound 0.03 µM): 0.31
- relative viability (Omipalisib + Palbociclib; first compound 0.0003 µM): 0.264
- relative viability (Omipalisib + Palbociclib; first compound 0.003 µM): 0.25
- relative viability (Omipalisib + Palbociclib; first compound 0.03 µM): 0.169
- relative viability (Omipalisib + Navitoclax; first compound 0.0003 µM): 0.975
- relative viability (Omipalisib + Navitoclax; first compound 0.003 µM): 0.775
- relative viability (Omipalisib + Navitoclax; first compound 0.03 µM): 0.474

Cell Line: NCI-H1975
- relative viability (Omipalisib + Pemetrexed; first compound 0.0003 µM): 0.35
- relative viability (Omipalisib + Pemetrexed; first compound 0.003 µM): 0.3
- relative viability (Omipalisib + Pemetrexed; first compound 0.03 µM): 0.22
- relative viability (Omipalisib + Pictilisib; first compound 0.0003 µM): 0.321
- relative viability (Omipalisib + Pictilisib; first compound 0.003 µM): 0.277
- relative viability (Omipalisib + Pictilisib; first compound 0.03 µM): 0.193
- relative viability (Omipalisib + Linsitinib; first compound 0.0003 µM): 0.857
- relative viability (Omipalisib + Linsitinib; first compound 0.003 µM): 0.614
- relative viability (Omipalisib + Linsitinib; first compound 0.03 µM): 0.206
- relative viability (Omipalisib + Foretinib; first compound 0.0003 µM): 0.991
- relative viability (Omipalisib + Foretinib; first compound 0.003 µM): 0.672
- relative viability (Omipalisib + Foretinib; first compound 0.03 µM): 0.287
- relative viability (Omipalisib + Palbociclib; first compound 0.0003 µM): 0.669
- relative viability (Omipalisib + Palbociclib; first compound 0.003 µM): 0.248
- relative viability (Omipalisib + Palbociclib; first compound 0.03 µM): 0.173
- relative viability (Omipalisib + Navitoclax; first compound 0.0003 µM): 1.03
- relative viability (Omipalisib + Navitoclax; first compound 0.003 µM): 0.635
- relative viability (Omipalisib + Navitoclax; first compound 0.03 µM): 0.24

Cell Line: NCI-H1993
- relative viability (Omipalisib + Pemetrexed; first compound 0.0003 µM): 0.529
- relative viability (Omipalisib + Pemetrexed; first compound 0.003 µM): 0.478
- relative viability (Omipalisib + Pemetrexed; first compound 0.03 µM): 0.513
- relative viability (Omipalisib + Pictilisib; first compound 0.0003 µM): 0.837
- relative viability (Omipalisib + Pictilisib; first compound 0.003 µM): 0.861
- relative viability (Omipalisib + Pictilisib; first compound 0.03 µM): 0.912
- relative viability (Omipalisib + Linsitinib; first compound 0.0003 µM): 0.697
- relative viability (Omipalisib + Linsitinib; first compound 0.003 µM): 0.765
- relative viability (Omipalisib + Linsitinib; first compound 0.03 µM): 0.589
- relative viability (Omipalisib + Foretinib; first compound 0.0003 µM): 0.805
- relative viability (Omipalisib + Foretinib; first compound 0.003 µM): 0.633
- relative viability (Omipalisib + Foretinib; first compound 0.03 µM): 0.594
- relative viability (Omipalisib + Palbociclib; first compound 0.0003 µM): 0.547
- relative viability (Omipalisib + Palbociclib; first compound 0.003 µM): 0.391
- relative viability (Omipalisib + Palbociclib; first compound 0.03 µM): 0.393
- relative viability (Omipalisib + Navitoclax; first compound 0.0003 µM): 0.722
- relative viability (Omipalisib + Navitoclax; first compound 0.003 µM): 0.703
- relative viability (Omipalisib + Navitoclax; first compound 0.03 µM): 0.618

Cell Line: NCI-H2009
- relative viability (Omipalisib + Pemetrexed; first compound 0.0003 µM): 1.04
- relative viability (Omipalisib + Pemetrexed; first compound 0.003 µM): 1.15
- relative viability (Omipalisib + Pemetrexed; first compound 0.03 µM): 0.892
- relative viability (Omipalisib + Pictilisib; first compound 0.0003 µM): 0.752
- relative viability (Omipalisib + Pictilisib; first compound 0.003 µM): 0.797
- relative viability (Omipalisib + Pictilisib; first compound 0.03 µM): 0.52
- relative viability (Omipalisib + Linsitinib; first compound 0.0003 µM): 1.13
- relative viability (Omipalisib + Linsitinib; first compound 0.003 µM): 1.18
- relative viability (Omipalisib + Linsitinib; first compound 0.03 µM): 0.946
- relative viability (Omipalisib + Foretinib; first compound 0.0003 µM): 1.15
- relative viability (Omipalisib + Foretinib; first compound 0.003 µM): 1.07
- relative viability (Omipalisib + Foretinib; first compound 0.03 µM): 0.922
- relative viability (Omipalisib + Palbociclib; first compound 0.0003 µM): 0.204
- relative viability (Omipalisib + Palbociclib; first compound 0.003 µM): 0.176
- relative viability (Omipalisib + Palbociclib; first compound 0.03 µM): 0.179
- relative viability (Omipalisib + Navitoclax; first compound 0.0003 µM): 1.22
- relative viability (Omipalisib + Navitoclax; first compound 0.003 µM): 1.14
- relative viability (Omipalisib + Navitoclax; first compound 0.03 µM): 0.897

Cell Line: NCI-H2023
- relative viability (Omipalisib + Pemetrexed; first compound 0.0003 µM): 0.208
- relative viability (Omipalisib + Pemetrexed; first compound 0.003 µM): 0.197
- relative viability (Omipalisib + Pemetrexed; first compound 0.03 µM): 0.139
- relative viability (Omipalisib + Pictilisib; first compound 0.0003 µM): 0.204
- relative viability (Omipalisib + Pictilisib; first compound 0.003 µM): 0.181
- relative viability (Omipalisib + Pictilisib; first compound 0.03 µM): 0.179
- relative viability (Omipalisib + Linsitinib; first compound 0.0003 µM): 0.513
- relative viability (Omipalisib + Linsitinib; first compound 0.003 µM): 0.342
- relative viability (Omipalisib + Linsitinib; first compound 0.03 µM): 0.234
- relative viability (Omipalisib + Foretinib; first compound 0.0003 µM): 0.908
- relative viability (Omipalisib + Foretinib; first compound 0.003 µM): 0.433
- relative viability (Omipalisib + Foretinib; first compound 0.03 µM): 0.233
- relative viability (Omipalisib + Palbociclib; first compound 0.0003 µM): 0.383
- relative viability (Omipalisib + Palbociclib; first compound 0.003 µM): 0.213
- relative viability (Omipalisib + Palbociclib; first compound 0.03 µM): 0.0832
- relative viability (Omipalisib + Navitoclax; first compound 0.0003 µM): 0.959
- relative viability (Omipalisib + Navitoclax; first compound 0.003 µM): 0.633
- relative viability (Omipalisib + Navitoclax; first compound 0.03 µM): 0.313

Cell Line: NCI-H2085
- relative viability (Omipalisib + Pemetrexed; first compound 0.0003 µM): 0.986
- relative viability (Omipalisib + Pemetrexed; first compound 0.003 µM): 0.855
- relative viability (Omipalisib + Pemetrexed; first compound 0.03 µM): 0.406
- relative viability (Omipalisib + Pictilisib; first compound 0.0003 µM): 0.416
- relative viability (Omipalisib + Pictilisib; first compound 0.003 µM): 0.474
- relative viability (Omipalisib + Pictilisib; first compound 0.03 µM): 0.436
- relative viability (Omipalisib + Linsitinib; first compound 0.0003 µM): 0.786
- relative viability (Omipalisib + Linsitinib; first compound 0.003 µM): 0.737
- relative viability (Omipalisib + Linsitinib; first compound 0.03 µM): 0.275
- relative viability (Omipalisib + Foretinib; first compound 0.0003 µM): 0.95
- relative viability (Omipalisib + Foretinib; first compound 0.003 µM): 0.884
- relative viability (Omipalisib + Foretinib; first compound 0.03 µM): 0.26
- relative viability (Omipalisib + Palbociclib; first compound 0.0003 µM): 0.553
- relative viability (Omipalisib + Palbociclib; first compound 0.003 µM): 0.479
- relative viability (Omipalisib + Palbociclib; first compound 0.03 µM): 0.33
- relative viability (Omipalisib + Navitoclax; first compound 0.0003 µM): 1.12
- relative viability (Omipalisib + Navitoclax; first compound 0.003 µM): 0.951
- relative viability (Omipalisib + Navitoclax; first compound 0.03 µM): 0.509

Cell Line: NCI-H2087
- relative viability (Omipalisib + Pemetrexed; first compound 0.0003 µM): 0.646
- relative viability (Omipalisib + Pemetrexed; first compound 0.003 µM): 0.558
- relative viability (Omipalisib + Pemetrexed; first compound 0.03 µM): 0.597
- relative viability (Omipalisib + Pictilisib; first compound 0.0003 µM): 0.916
- relative viability (Omipalisib + Pictilisib; first compound 0.003 µM): 0.692
- relative viability (Omipalisib + Pictilisib; first compound 0.03 µM): 0.739
- relative viability (Omipalisib + Linsitinib; first compound 0.0003 µM): 1.15
- relative viability (Omipalisib + Linsitinib; first compound 0.003 µM): 0.909
- relative viability (Omipalisib + Linsitinib; first compound 0.03 µM): 0.854
- relative viability (Omipalisib + Foretinib; first compound 0.0003 µM): 1.17
- relative viability (Omipalisib + Foretinib; first compound 0.003 µM): 0.809
- relative viability (Omipalisib + Foretinib; first compound 0.03 µM): 0.557
- relative viability (Omipalisib + Palbociclib; first compound 0.0003 µM): 0.247
- relative viability (Omipalisib + Palbociclib; first compound 0.003 µM): 0.219
- relative viability (Omipalisib + Palbociclib; first compound 0.03 µM): 0.146
- relative viability (Omipalisib + Navitoclax; first compound 0.0003 µM): 0.918
- relative viability (Omipalisib + Navitoclax; first compound 0.003 µM): 0.749
- relative viability (Omipalisib + Navitoclax; first compound 0.03 µM): 0.535

Cell Line: NCI-H2126
- relative viability (Omipalisib + Pemetrexed; first compound 0.0003 µM): 0.652
- relative viability (Omipalisib + Pemetrexed; first compound 0.003 µM): 0.537
- relative viability (Omipalisib + Pemetrexed; first compound 0.03 µM): 0.38
- relative viability (Omipalisib + Pictilisib; first compound 0.0003 µM): 0.518
- relative viability (Omipalisib + Pictilisib; first compound 0.003 µM): 0.463
- relative viability (Omipalisib + Pictilisib; first compound 0.03 µM): 0.435
- relative viability (Omipalisib + Linsitinib; first compound 0.0003 µM): 0.712
- relative viability (Omipalisib + Linsitinib; first compound 0.003 µM): 0.644
- relative viability (Omipalisib + Linsitinib; first compound 0.03 µM): 0.422
- relative viability (Omipalisib + Foretinib; first compound 0.0003 µM): 1.01
- relative viability (Omipalisib + Foretinib; first compound 0.003 µM): 0.718
- relative viability (Omipalisib + Foretinib; first compound 0.03 µM): 0.342
- relative viability (Omipalisib + Palbociclib; first compound 0.0003 µM): 0.344
- relative viability (Omipalisib + Palbociclib; first compound 0.003 µM): 0.344
- relative viability (Omipalisib + Palbociclib; first compound 0.03 µM): 0.317
- relative viability (Omipalisib + Navitoclax; first compound 0.0003 µM): 0.82
- relative viability (Omipalisib + Navitoclax; first compound 0.003 µM): 0.594
- relative viability (Omipalisib + Navitoclax; first compound 0.03 µM): 0.375
